Test results reported in paper PMC3275370 (The Journal of Cell Biology, 2012).

What was measured:
NS1 = assay type: cell-based, influenza virus
mRNA export block = assay type: cell-based
A/WSN/1933 = assay type: cell-based, influenza virus
VSV-GFP (Indiana strain) = assay type: cell-based, vesicular stomatitis virus
HBECs = test: Measurements of cellular UMP, UDP and UTP levels by LC-MS/MS; assay type: cell-based, human; conditions: HBECs treated with compound
VSV M protein = assay type: cell-based, vesicular stomatitis virus

SMILES | reversal of NS1 inhibition of host gene expression (luciferase activity) (NS1) | poly(A)+ RNA distribution in influenza virus-infected cells (mRNA export block) | antiviral effect on influenza virus (A/WSN/1933) | antiviral effect on VSV (VSV-GFP (Indiana strain)) | influenza virus replication (A/WSN/1933) | VSV replication (VSV-GFP (Indiana strain)) | UMP and UDP pools (HBECs) | UTP levels (HBECs) | NS1-mediated mRNA export block in absence of virus (mRNA export block) | inhibition of gene expression by M protein (VSV M protein) | cytotoxicity (MDCK cells)
CCOc1ccc(-c2cc(C(=O)O)c3cc(Cl)ccc3n2)cc1 [Compound 1, 6-chloro-2-(4-ethoxyphenyl)quinoline-4-carboxylic acid] | reverted the inhibition of host gene expression by NS1 | normal distribution of mRNA in the nucleus and in the cytoplasm | – | – | – | – | – | – | – | – | –
Cc1ccc(-c2cc(C(=O)O)c3cc(Cl)ccc3n2)cc1 [Compound 1-10, 6-chloro-2-p-tolylquinoline-4-carboxylic acid] | – | – | no antiviral effect | no antiviral effect | – | – | – | – | – | – | –
O=C(O)c1cc(-c2ccc(Oc3ccccc3)cc2)nc2ccc(F)cc12 [Compound 1-14, 6-fluoro-2-(4-phenoxyphenyl)quinoline-4-carboxylic acid] | reverted | normal distribution of mRNA in the nucleus and in the cytoplasm | – | – | virus replication was inhibited | down-regulated | down-regulated to a lesser extent | reduced UTP levels | released | reverted | not cytotoxic
